Patent publication US20220031680A1, “Donecopride As Neuroprotective Agent In the Treatment of Neurodegenerative Diseases” (priority 2018, published 2022)
Marks after values point to notes of the source that are not given here.

Experiments:
[1] = tested on: Aβ40; experiment: Aβ40 levels in brain extracts of 5×FAD mice (ELISA); assay type: in vivo, mouse; conditions: brain extract; 1 mg/kg i.p. twice a week for two months, 2 to 4 months of age
Description: (§1) Animal experiments were carried out in accordance with the Directive by the Council of the European Communities of Nov. 24, 1986 (86/609/EEC). All efforts were made to minimize animal suffering and to reduce the number of mice used. The generation of 5×FAD mice was described in Oakley et al. (2006) J. Neurosci. 26:10129-10140. These transgenic mice overexpress both human APP (695) harboring the Swedish (K670N, M671L), Florida (1716V) and London (V7171) familial AD (FAD) mutations and human Presenilin 1 (PS1) harboring the two FAD mutations M146L and L286V. Expression of both transgenes is regulated by neuronal-specific elements of the mouse Thy1 promoter. The 5×FAD strain (B6/SJL genetic background) was maintained by crossing hemizygous transgenic mice with B6/SJL F1 breeders. The 5×FAD strain (C57BL/6J genetic background) was maintained by crossing hemizygous transgenic mice with C57BL/6J F1 breeders. All animals were genotyped by PCR using tail genomic DNA. Transgenic and WT mice were bred in our animal facility, had access to food and water ad libitum and were housed under a 12 h light-dark cycle at 22-24° C. Female 5×FAD mice were used in this study. For each experiment, the age of mice is indicated in months (with a two-week range).
(§2) Compounds were resuspended in DMSO (37.5 μg/μl, stored at −20° C.) and freshly diluted 1:250 in 0.9% NaCl prior administration. Vehicle solution (0.9% NaCl, 0.4% DMSO) was used as control.
(§3) 5×FAD mice received chronic treatments with drugs or vehicle according to 2 different protocols. In each experiment, drugs or vehicle solution were administered i.p. twice a week (1 mg/kg). In “Protocol 1”, mice (n=6-7 mice per group) were treated with compounds for two months, from 2 to 4 months of age. In “Protocol 2”, mice (n=7) were treated with compounds for three months, from 1 month to 4 months of age. At the end of each protocol, mice were anesthetized with a mixture of 100 mg/kg ketamine and 10 mg/kg xylazine in saline solution and perfused transcardially with PBS. Brains were quickly isolated on ice, the olfactory bulbs and cerebellum removed and the two hemispheres divided. […]
(§4) ELISA kits from IBL International (Hamburg, Germany) for the dosage of Aβ40 (human amyloid β (1-40) assay kit, #27713) or Aβ42 (human amyloid β (1-42) assay kit, #27719) were used according to the manufacturer's instructions. Reactions were read at 620 nm and 450 nm using an Infinite 2000 luminescence counter. The obtained values were normalized to the protein concentration of each sample, measured using a BCA protein assay (Sigma-Aldrich). […]
(§5) Aβ40 and Aβ42 were quantified from brain extract in soluble and insoluble fractions. […]

[2] = tested on: GFAP; experiment: Astrogliosis (GFAP staining) in 5×FAD mouse brain; assay type: in vivo; conditions: 1 mg/kg twice a week for 3 months; for GFAP staining in frontal cortex or hippocampus: compared to controls; for decrease of GFAP staining in entorhinal brain slices: compared to vehicle
Description: 5×FAD mice received chronic treatments with drugs or vehicle according to 2 different protocols. In each experiment, drugs or vehicle solution were administered i.p. twice a week (1 mg/kg). In “Protocol 1”, mice (n=6-7 mice per group) were treated with compounds for two months, from 2 to 4 months of age. In “Protocol 2”, mice (n=7) were treated with compounds for three months, from 1 month to 4 months of age. At the end of each protocol, mice were anesthetized with a mixture of 100 mg/kg ketamine and 10 mg/kg xylazine in saline solution and perfused transcardially with PBS. Brains were quickly isolated on ice, the olfactory bulbs and cerebellum removed and the two hemispheres divided. One hemisphere was frozen on dry ice and stored at −80° C. for biochemical analysis, while the other was post-fixed in 4% PFA for immunohistochemistry (IHC).
Thirty-micrometer-thick sections were cut using a vibratome (Microm HM 650V, Thermo Scientific, Saint Herblain, France) and stored in cryoprotectant medium at −20° C. For the labeling of amyloid plaques, free-floating tissue sections of frontal cortex, hippocampus and entorhinal cortex (coordinates from the bregma: frontal cortex=1.98 mm, hippocampus=−1.94 mm, entorhinal cortex=−3.08 mm) were extensively washed in PBS and then incubated in blocking solution (PBS; 3% BSA; 0.1% Triton X-100) for 1 h. Sections were stained with Hoechst dye (1:1000, Life Technologies, Saint Aubin, France) for 15 minutes to detect cell nuclei and then with freshly prepared thioflavin T solution (#T3516-5G, Sigma-Aldrich) (final concentration: 0.01 mg/ml in blocking buffer) for 15 minutes. After washing in 70% ethanol for 5 minutes, samples were mounted on poly-lysine slides with coverslips. For GFAP (glial fibrillary acidic protein) staining, free-floating brain sections were blocked as before and incubated with polyclonal rabbit anti-GFAP (1:1000, Z0334, Dako, Les Ullis, France) at 4° C. overnight. After thioflavin T staining and washing with 70% ethanol, the secondary Alexafluor 594 goat anti-rabbit antibody (1:1000, A11012, Life Technologies) was added for 2 h. PBS washes and mounting were performed as described before.
Images were acquired with an Axiolmager Z1 microscope (Carl Zeiss S.A.S., Marly le Roi, France). Analysis of thioflavin T staining was performed blindly and data are presented as the mean number of particles per mm^2 in two to three tissue sections from the same brain area/animal (Image J software). GFAP expression was quantified using Image J software and results are expressed as area fractions.
28 female 5×FAD mice (C57BL/6J genetic background) were used in this study. Mice received vehicle or compounds (1 mg/kg) i.p., twice a week for three months, from 1 to 4 months of age.

[3] = tested on: Aβ42; experiment: Aβ42 levels in brain extracts of 5×FAD mice (ELISA); assay type: in vivo, mouse; conditions: brain extract; 1 mg/kg i.p. twice a week for two months, 2 to 4 months of age
Description: as §1, §2, §3, §4, §5

SMILES	Aβ40, insoluble fraction (% of controls) [1]	Aβ40, soluble fraction (% of controls) [1]	GFAP staining in frontal cortex or hippocampus [2]	decrease of GFAP staining in entorhinal brain slices [2]	Aβ42, insoluble fraction (% of controls) [3]	Aβ42, soluble fraction (% of controls) [3]
COc1cc(N)c(Cl)cc1C(=O)CCC1CCN(CC2CCCCC2)CC1 [Donecopride]	79.97 % of controls	110.18 % of controls	not significantly different	54±10%	67.85* % of controls	65.93* % of controls
COc1cc(N)c(F)cc1C(=O)CCC1CCN(CC2CCCCC2)CC1 [Flucopride]	97.16 % of controls	110.51 % of controls	not significantly different	51±5%	73.16 % of controls	30.19**** % of controls
